One assay has as its system HepG2 2D monolayer. The experiment in a line: Sensitivity to hepatotoxins, CellTiter-Glo ATP viability, 2D monolayer. The format is cell-based. Conditions: Homo sapiens, 24-h acute dosing, estimated from graphs. Here is the method:
(§1) For 2D monolayers, 10,000 HepG2 cells were seeded on 96-well plates (Thermo Fisher, Ireland). Cells were left to adhere for 24 h before being treated with chosen NBMs for desired timepoints. For HepG2 spheroid formation, cells were seeded in CellStar® 96 well ultra-low attachment (ULA) cell-repellent plates (Grenier, BioOne, UK) at a density of 1000 cells per well in 100 µl medium (Fig. 1). After 3 days of incubation at 37 °C with 5% CO2, medium was changed with care taken not to disturb the spheroids.
(§2) Sensitivity of spheroid cultures to a panel of common hepatotoxins was tested using a protocol detailed previously in works from Gaskell et al. and Bell et al. and using information listed in the MIP-DILI training set. The hepatotoxins included acetaminophen, diclofenac, trovafloxacin and fialuridine. HepG2 spheroids grown for 3 days and 10 days were exposed to the hepatotoxins, diluted in cell culture medium, for 4 days, with an addition dose administered 2 days after the first exposure. Concentrations tested for each compound were the following: • Acetaminophen: 10000, 5000, 1250, 625, 300, 150, 75 µg/ml • Diclofenac: 400, 200, 100, 50, 25, 12.5, 6.25 µg/ml • Trovafloxacin: 500, 200, 100, 50, 25, 12.5, 6.25 µg/ml • Fialuridine: 200, 100, 50, 25, 12.5, 6.25, 3.15 µg/ml
(§3) Viability of the treated cultures was determined using the CellTiter-Glo® assay (Thermo Fisher, Ireland) as per the manufacturer’s protocol. Culture medium alone with CellTiter-Glo® reagent was used as a blank control and subtracted from all sample values. Cell viability was calculated as a percentage of untreated vehicle control samples. A dose-dependent response curve was plotted, and estimations were made about what concentration of drug would cause a 50% reduction in cell viability (IC50 value). Experiments were run in triplicate (n = 3).
(§4) Spheroids and HepG2 monolayers were treated with varying concentrations of four common hepatotoxic compounds, namely acetaminophen, diclofenac, fialuridine and trovafloxacin. Following a protocol detailed in Gaskell et al., a 4-day repeat-dosing regimen was used to expose 3D spheroids, i.e. spheroids were cultured for 3 days before being treated with hepatotoxic compounds for 2 days, before doing is repeated again on day 5. Spheroids then remained in culture untouched until ATP quantification assay was undertaken on day 7. […] Each of the four chosen compounds was more toxic in 3D spheroids than in 2D monocultures, although differences were not statistically significant. The concentration causing a 50% reduction in cell viability (IC50) was estimated for each drug tested from the graphs, and is reported in Table 7. A comparison to data extracted from the scientific literature is also reported.

In a further assay the test system is HepG2 spheroids. The experiment in a line: Sensitivity to hepatotoxins, CellTiter-Glo ATP viability, 3D spheroids. The format is cell-based. Conditions: Homo sapiens, 4-day repeat dosing (day 3 and day 5), readout day 7, estimated from graphs. Here is the method:
as §1, §2, §3, §4

For assay [1], the system named is HepG2 cells (2D monocultures). In words: NBM exposure, LDH cytotoxicity assay, 2D monocultures. The class given is cell-based, Human. Conditions: 125 µM, 24 h.
Description: Stock NBM suspensions were vortexed and appropriate dilutions made in cell culture medium. For NBM exposures, briefly, cell culture medium was removed from the wells of culture plates and wells washed with pre-warmed PBS. For adenosine 5′-triphosphate (ATP) quantification and lactate dehydrogenase (LDH) assay, 100 µl of each NBM concentration diluted in culture medium was added to each well for three incubation/exposure timepoints, 24, 48 and 72 h.
The LDH assay is a cytotoxicity assay which is used to assess the level of plasma membrane damage in a cell population. […] LDH release in the supernatants (an indirect measure of cytotoxicity responses) was assessed using the Thermo Scientific Pierce LDH Cytotoxicity Assay Kit (Fisher Scientific, Ireland), following the manufacturers’ protocols. […] Absorbance values at wavelengths (λ) equal to 490 and 680 nm were read using an Epoch microplate reader (Biotek, Mason Technologies, Ireland). The LDH activity was calculated using Eq. (1), whereas the percentage (%) cytotoxicity was extrapolated from Eq. (2).1 LDHactivity=Absorbanceλ=490nm-Absorbanceλ=680nm 2 Cytotoxicity%=LDHactivityTreatedculture-LDHactivityNT/LDHactivityPT-LDHactivityNT […]

These results are taken from PMC9360078, “Pre-clinical 2D and 3D toxicity response to a panel of nanomaterials; comparative assessment of NBM-induced liver toxicity” (Drug Delivery and Translational Research, 2022).

Broadly, the IC50 is the concentration needed to halve the response being measured. For the compound `CC(=O)Nc1ccc(O)cc1` [Acetaminophen, acetaminophen], the IC50 was greater than 10000 µM in the assay with HepG2 2D monolayer and greater than 8000 µM with HepG2 spheroids.
For `O=C(O)Cc1ccccc1Nc1c(Cl)cccc1Cl` [Diclofenac, diclofenac] the same measures were greater than 400 µM and greater than 250 µM.
The like results for `O=c1[nH]c(=O)n([C@@H]2O[C@H](CO)[C@@H](O)[C@@H]2F)cc1I` [Fialuridine, fialuridine] were, in that order, greater than 200 µM and greater than 200 µM.
The like results for `N[C@@H]1[C@H]2CN(c3nc4c(cc3F)c(=O)c(C(=O)O)cn4-c3ccc(F)cc3F)C[C@@H]12` [Trovafloxacin, trovafloxacin] were, in that order, greater than 400 µM and greater than 100 µM.
As for `CC(C)[C@@H]1NC(=O)[C@H](C)OC(=O)[C@@H](C(C)C)NC(=O)[C@@H](C(C)C)OC(=O)[C@H](C(C)C)NC(=O)[C@H](C)OC(=O)[C@@H](C(C)C)NC(=O)[C@@H](C(C)C)OC(=O)[C@H](C(C)C)NC(=O)[C@H](C)OC(=O)[C@@H](C(C)C)NC(=O)[C@@H](C(C)C)OC1=O` [valinomycin], the Maximal cell death in assay [1] was less than 50%.
